# Measured values taken from patent US4616025A, “Thiazolidine derivatives, process for the preparation and pharmaceutical compositions thereof” (Richter Gedeon Vegyeszeti Gyar RT, priority 1983, dated 1986).
# Entries after “also recorded” stand apart in the source; their conditions may differ. Like-named read-outs stand apart in the source and are kept apart here.
# Columns and labels:
# [1] = system: aspirin-induced gastric ulcers; assay: Aspirin-induced stomach ulcer; format: in vivo, rat (female H-Wistar)
# Protocol: It is known that the non-steroidal antiinflammatory agents induce gastointestinal ulceration to certain extent (Drugs and Peptic Ulcer, Ed. Pfeiffer, CRC Press, New York 1982). To test anti-ulcer compounds the so-called Aspirin-induced ulcer model is widely used. Female H-Wistar rats weighing 120-150 g each were fasted for 24 hours. Water was allowed ad libitum. The stomach ulcer was induced by oral administration of 100 mg/kg Aspirin (in Tween 80 suspension). The test drug was given simultaneously with the administration of Aspirin, orally. The animals were killed by an overdose of ether, 4 hours after treatment. The stomach was excised and cut along the large curvature. The contents were slightly washed and the haemorrhagic lesions in the glandular surface were counted. When evaluating the test results, the number of ulcers per stomach or the ulcer-free animals were determined.
# [2] = system: gastric ulcers induced by indomethacin; assay: Gastric ulcers induced by a 20 mg/kg oral dose of indomethacin; format: in vivo; conditions: 20 mg/kg oral dose of indomethacin
# [3] = system: indomethacin-induced non-fatal intestinal ulceration; assay: Indomethacin-induced (7.5 mg/kg p.o.) non-fatal intestinal ulceration, post-treatment, inflation technique; format: in vivo, rat (H-Wistar); conditions: for Non-fatal intestinal ulceration post-treatment, in words: post-treatment 4, 24 and 48 hours after indomethacin 7.5 mg/kg p.o.
# Protocol: (§1) To evaluate the development of intestinal ulcers the so-called inflation technique by Ezer and Szporny (J. Pharm. Pharmacol. 27, 866 (1975)) was employed. By this method the progress of ulceration can be monitored quantitatively. The tensile strength of the intestinal wall expressed in mmHg weakens gradually parallel with the progress of ulceration.
# (b) Indomethacin-induced non-fatal ulceration
# Non-fasted H-Wistar rats weighing 120 to 150 g each were administered 7.5 mg/kg indomethacin orally, to induce non-fatal intestinal ulceration. 4, 24 and 48 hours, respectively, after the indomethacin treatment the animals were treated with the test material orally. The animals were killed 24 hours after the last treatment and 72 hours after the ulcer-induction performed with indomethacin, respectively. Ulceration was evaluated by the inflation technique.
# Toxicological studies = assay: Toxicological studies
# Protocol: For intravenous administration the compound was dissolved in dimethyl formamide.
# gastric acid secretion = assay: Gastric acid secretion in Shay-rats (pylorus ligation, 4 hours); format: in vivo, rat (female H-Wistar)
# Protocol: The method was first described by Shay et al in 1945 (Gastroenterology 56, 5-13, 1945). Female H-Wistar rats (120-150 g) were gasted for 24 hours. Water was allowed ad libitum. The pylorus of the animals was ligated in slight ether narcosis. […] 4 hours after treatment the animals were killed by an overdose of ether. The stomach was excised and cut along the large curvature. The volume and the pH of the contents were determined, in certain cases the HCl production was determined by titration.
# [4] = system: gastric necrosis induced by absolute alcohol; assay: Gastric necrosis induced by absolute alcohol (cytoprotection); format: in vivo, rat (female H-Wistar)
# Protocol: Gastric necrosis induced by absolute alcohol
# Water was allowed ad libitum. The compounds to be tested were administered orally, 30 minutes prior to the administration of 0.5 ml of ethanol/100 g of body weight through a canula. Two hours later the animals were killed by overdosing ether. Stomachs were removed and opened along the major curvature. […] Degree of the cytoprotection was expressed in % related to the control.
# [5] = system: indomethacin-induced intestinal ulceration; assay: Indomethacin-induced fatal intestinal ulceration (15 mg/kg p.o.), inflation technique; format: in vivo, rat (female H-Wistar); conditions: for ED100: Rattus norvegicus, po
# Protocol: Indomethacin-induced intestinal ulceration
# Of the non-steroidal antiinflammatory agents indomethacin has not only a gastric-ulcer inducing side-effect but may also cause serious intestinal ulceration. Depending on the dose, the intestinal ulceration may be fatal, peritonitis due to intestinal perforations kills the animals.
# (a) Indomethacin-induced fatal intestinal ulceration
# Non-fasted, female H-Winstar rats, weighing 120-150 g each were treated orally with a 15 mg/kg dose of indomethacin (in Tween 80 suspension). […] Under these conditions it requires about 48 to 72 hours to detect intenstinal ulceration.
# as §1
# ulcer = assay: Anti-ulcer activity in general (pharmacological tests); format: in vivo; conditions: compared with cimetidine
# Excerpt: The pharmacological activity of the new compounds has been investigated by the following methods: […]
# [6] = system: intestinal ulceration induced by indomethacin; conditions: literature; cited from earlier work
# formation of ulcers = conditions: cited from earlier work
# [7] = Aspirin (control) 100 mg/kg p.o., n=20
# [8] = 10 mg/kg i.p., 15 min. prior to operation, n=5
# [9] = 10 mg/kg s.c., 15 min prior to operation, n=5
# [10] = 10 mg/kg, 15 min prior to operation, n=5
# [11] = indomethacin 15 + 15 mg/kg p.o.
# [12] = indomethacin 15 + 25 mg/kg p.o.
# [13] = indomethacin 15 + 50 mg/kg p.o.
# [14] = Aspirin 100 + 1.5 mg/kg p.o., n=10
# [15] = Aspirin 100 + 3.0 mg/kg p.o., n=17
# [16] = Aspirin 100 + 6.0 mg/kg p.o., n=17
# [17] = Aspirin 100 + 12.0 mg/kg p.o., n=14
# [18] = Aspirin 100 + 25.0 mg/kg p.o., n=17
# [19] = indomethacin 15 mg/kg p.o. alone, n=16
smiles,measurement,setting,value
"CC(=O)Oc1ccccc1C(=O)O [Aspirin, reference compound]",Number of ulcers/stomach,[1]; [7],15.7 ± 3.0
same,Ulcer-free animals,[1]; [7],0%
"N#CN=C1SCCN1Cc1ccccc1 [Compound A, 3-Benzyl-2-cyanimino-thiazolidine]","Indomethacin-induced gastric ulcers, in words",[2],effectively inhibited
same,Solubility in water,Solubility in water,insoluble in water
same,T.s. of intestinal wall 72 hours after indomethacin treatment,"[3]; 7.5 + 3 × 25 mg/kg p.o., 4, 24, 48 hours after indomethacin",176 ± 20 mm Hg
same,T.s. of intestinal wall 72 hours after indomethacin treatment,"[3]; 7.5 + 3 × 50 mg/kg p.o., 4, 24, 48 hours after indomethacin",249 ± 4 mm Hg
same,"Non-fatal intestinal ulceration post-treatment, in words",[3],can normalize the tensile strength of the intestine wall
same,Sickness / death,"Toxicological studies; 100 mg/kg, route not given, within 3 days",sickness of the test animals but no death occurs
same,Death,"Toxicological studies; 250 mg/kg, within 2 weeks",no death is observed
same,Time to death of the animals,Toxicological studies; 1500 mg/kg i.p.,≤ 30 min
same,Behavior and food consumption of animals,Toxicological studies; 1500 mg/kg oral,normal
same,Further deaths,"Toxicological studies; 1500 mg/kg oral, in the next week",no further deaths are observed
same,Death of animals within 24 hours,"Toxicological studies; 1500 mg/kg oral, within 24 hours",3 animals out of 10
same,Therapeutic index,Toxicological studies; first toxicological studies,high therapeutic index
same,Acid secretion,"gastric acid secretion; 1.25 mg/kg i.p., n=5",436 μmol HCl/100 g b.w.
same,Acid secretion,"gastric acid secretion; 2.5 mg/kg i.p., n=10",358 μmol HCl/100 g b.w.
same,Inhibition of acid secretion,"gastric acid secretion; 2.5 mg/kg i.p., n=10",17%
same,Acid secretion,"gastric acid secretion; 5.0 mg/kg i.p., n=10",301 μmol HCl/100 g b.w.
same,Inhibition of acid secretion,"gastric acid secretion; 5.0 mg/kg i.p., n=10",30%
same,Gastric acid secretion (volume),gastric acid secretion; [8],"2.5 ml/100 g, b.w."
same,"Gastric acid secretion, pH",gastric acid secretion; [8],3.7
same,"Gastric acid secretion, vol. inhibition",gastric acid secretion; [8],42%
same,Inhibition of acid secretion,"gastric acid secretion; 10.0 mg/kg i.p., n=20",100%
same,Gastric acid secretion (volume),gastric acid secretion; [9],"2.8 ml/100 g, b.w."
same,"Gastric acid secretion, pH",gastric acid secretion; [9],1.5
same,"Gastric acid secretion, vol. inhibition",gastric acid secretion; [9],35%
same,Gastric acid secretion (volume),gastric acid secretion; [10],"2.3 ml/100 g, b.w."
same,"Gastric acid secretion, pH",gastric acid secretion; [10],4.1
same,"Gastric acid secretion, vol. inhibition",gastric acid secretion; [10],47%
same,Inhibition of acid secretion,"gastric acid secretion; 25.0 mg/kg i.p., n=5",100%
same,ED50,"gastric acid secretion; Rattus norvegicus, ip, 4 h, i.p., Shay rats, read-out: ED50, gastric acid secretion inhibition",5.3 mg/kg
same,"Gastric acid secretion decreasing effect, in words","gastric acid secretion; Table 1, i.p.",dose-dependent gastric acid secretion decreasing effect
same,"Gastric acid secretion inhibition on oral administration, in words",gastric acid secretion; administered orally,effectively inhibits the gastric acid secretion also when administered orally
same,Oral absorption,"gastric acid secretion; comparison of i.p., s.c. and p.o. data",good oral absorption
same,Cytoprotection,[4]; 1.5 mg/kg p.o.,37%
same,Length of average lesion,[4]; 1.5 mg/kg p.o.,52.5 ± 19 mm/stomach
same,Cytoprotection,[4]; 3.0 mg/kg p.o.,58%
same,Length of average lesion,[4]; 3.0 mg/kg p.o.,34.8 ± 10 mm/stomach
same,Cytoprotection,[4]; 6.0 mg/kg p.o.,64%
same,Length of average lesion,[4]; 6.0 mg/kg p.o.,29.9 ± 9 mm/stomach
same,Cytoprotection,[4]; 12.0 mg/kg p.o.,60%
same,Length of average lesion,[4]; 12.0 mg/kg p.o.,32.9 ± 5 mm/stomach
same,Cytoprotection,[4]; 25.0 mg/kg p.o.,78%
same,Length of average lesion,[4]; 25.0 mg/kg p.o.,18.0 ± 8 mm/stomach
same,ED50,"[4]; Rattus norvegicus, po, 30 minutes prior to ethanol",2.8 mg/kg
same,"Absolute alcohol-induced gastric necrosis, in words","[4]; rat, in vivo",effective against the gastric necrosis induced by absolute alochol; also recorded: effective also in the absolute alcohol necrosis test
same,ED100,"[5]; simultaneous with indomethacin 15 mg/kg, read-out: ED100",50 mg/kg
same,Intestinal wall resistency in % of normal,[5]; [11],52 % of normal
same,T.s. of intestinal wall 72 hours after treatment,[5]; [11],120 ± 20 mm Hg
same,Intestinal wall resistency in % of normal,[5]; [12],83 % of normal
same,T.s. of intestinal wall 72 hours after treatment,[5]; [12],192 ± 18 mm Hg
same,Intestinal wall resistency in % of normal,[5]; [13],97 % of normal
same,T.s. of intestinal wall 72 hours after treatment,[5]; [13],225 ± 6 mm Hg
same,"Indomethacin-induced intestinal ulceration, in words","[5]; simultaneous administration, indomethacin 15 mg/kg p.o.",dose-dependent inhibiting effect; also recorded: inhibits the indomethacin-induced intestinal ulceration
same,Number of ulcers/stomach,[1]; [14],9.5
same,Ulcer inhibition,[1]; [14],40%
same,Ulcer-free animals,[1]; [14],0%
same,Number of ulcers/stomach,[1]; [15],6.8
same,Ulcer inhibition,[1]; [15],57%
same,Ulcer-free animals,[1]; [15],23%
same,Number of ulcers/stomach,[1]; [16],4.7
same,Ulcer inhibition,[1]; [16],71%
same,Ulcer-free animals,[1]; [16],29%
same,Number of ulcers/stomach,[1]; [17],2.2
same,Ulcer inhibition,[1]; [17],86%
same,Ulcer-free animals,[1]; [17],66%
same,Number of ulcers/stomach,[1]; [18],2.3
same,Ulcer inhibition,[1]; [18],85%
same,Ulcer-free animals,[1]; [18],41%
same,ED50,"[1]; Rattus norvegicus, po, 4 h, simultaneous administration",2.1 mg/kg
same,"Aspirin-induced gastric ulceration, in words","[1]; simultaneous administration, depending on the dose",inhibits the formation of the aspirin-induced gastric ulceration
same,"Spectrum of activity, in words",ulcer,wider spectrum of activity than for example cimetidine
C[N+]1(C)[C@@H]2CC[C@H]1CC(OC(=O)C1c3ccccc3Oc3ccccc31)C2.[Br-] (stereo partly shown) [Gastrixon],"Indomethacin-induced intestinal ulceration, in words",[6],cannot prevent indomethacin-induced intestinal ulceration
"COc1ccc2c(c1)c(CC(=O)O)c(C)n2C(=O)c1ccc(Cl)cc1 [Indomethacin, reference compound]",T.s. of intestinal wall 72 hours after indomethacin treatment,"[3]; indomethacin 7.5 mg/kg p.o. alone, n=32, group B",185 ± 11 mm Hg
same,Intestinal wall resistency in % of normal,[5]; [19],20 % of normal
same,T.s. of intestinal wall 72 hours after treatment,[5]; [19],46 ± 12 mm Hg
"O=C(O)c1ccccc1O [Na--salicylate, reference compound]",ED100,[5],50 mg/kg
same,Intestinal wall resistency in % of normal,[5]; [12],57 % of normal
same,T.s. of intestinal wall 72 hours after treatment,[5]; [12],132 ± 17 mm Hg
same,Intestinal wall resistency in % of normal,[5]; [13],100 % of normal
same,T.s. of intestinal wall 72 hours after treatment,[5]; [13],231 ± 5 mm Hg
CC(C)[N+](C)(CCOC(=O)C1c2ccccc2Oc2ccccc21)C(C)C [Propanthelin],"Indomethacin-induced intestinal ulceration, in words",[6],cannot prevent indomethacin-induced intestinal ulceration
"CN1CCN(CC(=O)N2c3ccccc3C(=O)Nc3cccnc32)CC1 [pirenzepine, 5,11-dihydro-11-[(4-methyl-1-piperazinyl)-acetyl]-6H-pyrido[2,3-b][1,4] benzodiazepine-6-one]","Inhibition of the formation of ulcers, in words",formation of ulcers; compared to atropine,inhibits the formation of ulcers to the same extent as atropine
same,"Other anticholinergic effects (e.g. inhibition of peristalsis, accommodation disturbances of eye, inhibition of salivation)",formation of ulcers; in vivo,devoid of other anticholenergic effects
CNC(=C[N+](=O)[O-])NCCSCc1ccc(CN(C)C)o1 [ranitidine],"Non-fatal intestinal ulceration post-treatment, in words",[3],ineffective
